The record followed here is BindingDB's records for doi:10.7270/Q29G5K8R (Burnham Center For Chemical Genomics, 2010).

SMILES strings stand for the structures. A value given as a limit tells only on which side of the number the result lay.

The target in this assay is Intestinal-type alkaline phosphatase (Homo sapiens, UniProt P09923). Put plainly: activation of human intestinal alkaline phosphatase – biochemical, dose response (AID 488873).
Chain of Intestinal-type alkaline phosphatase (P09923 whole entry): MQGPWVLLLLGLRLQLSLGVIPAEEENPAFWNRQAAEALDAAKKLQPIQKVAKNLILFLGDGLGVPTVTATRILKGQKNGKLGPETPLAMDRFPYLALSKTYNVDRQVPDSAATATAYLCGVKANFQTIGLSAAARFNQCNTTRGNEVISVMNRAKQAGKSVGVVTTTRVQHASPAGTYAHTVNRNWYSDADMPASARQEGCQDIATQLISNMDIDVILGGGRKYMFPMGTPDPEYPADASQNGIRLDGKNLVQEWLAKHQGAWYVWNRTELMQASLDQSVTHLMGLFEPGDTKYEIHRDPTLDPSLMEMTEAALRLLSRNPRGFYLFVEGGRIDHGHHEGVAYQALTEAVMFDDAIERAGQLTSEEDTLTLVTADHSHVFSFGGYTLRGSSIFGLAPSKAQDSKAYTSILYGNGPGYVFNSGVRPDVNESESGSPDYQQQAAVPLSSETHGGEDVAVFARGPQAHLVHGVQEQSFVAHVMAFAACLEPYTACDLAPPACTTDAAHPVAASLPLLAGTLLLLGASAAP

Usually EC50 stands for the midpoint of the concentration-response curve. The molecule `Cc1cc(=O)[nH]c(N=NCc2ccc(O)c(O)c2)n1` [MLS001194906] yielded a concentration giving a half-maximal response (EC50) of 66.2 µM.

`O=C(NN=CC1=CC(=O)C(=O)CC1)NN=CC1=CC(=O)C(=O)CC1` [1,3-bis[[(Z)-(3-hydroxy-4-oxocyclohexa-2,5-dien-1-ylidene)methyl]amino]urea] came in with an EC50 of 66.2 µM.

In turn, `O=C1CC(=O)c2c(O)cc(O)c(O)c2C1=O` [4,5,7,8-tetrahydroxy-1,2-naphthoquinone] yielded an EC50 greater than 100 µM.

For `C#CCOCCOCCOCCNc1nc(N2CCN(C(=O)CCCCCCCCCCNC(=O)[C@@H](CCC(=O)O)n3cc(CCCCCN)nn3)CC2)nc(N2CCN(C(=O)CCCCCCCCCCNC(=O)[C@H]([C@@H](C)CC)n3cc(CCCCCN)nn3)CC2)n1` [KI-KE], the EC50 is greater than 100 µM.

As for `CN(CCO)c1ccc(CN=Nc2ccc([N+](=O)[O-])cc2S(=O)(=O)Nc2ccccc2C(=O)O)cc1`, the EC50 came out at 26.6 µM.

In turn, `Oc1ccc(CN=Nc2cc(N3CCCC3)nc(N3CCCC3)n2)cc1O` [(4Z)-4-[[2-(2,6-dipyrrolidin-1-ylpyrimidin-4-yl)hydrazinyl]methylidene]-2-hydroxycyclohexa-2,5-dien-1-one] returned a concentration for a half-maximal effect (EC50) greater than 100 µM.
